According to US9328099B2, “Cyanomethylpyrazole carboxamides as janus kinase inhibitors” (Merck Sharp & Dohme Corp., priority 2011, dated 2016):

Legend:
[1] = target: JAK2 (Homo sapiens (Human), UniProt O60674); test: Jak Biochemical HTRF Assay, JAK2; conditions: HTRF biochemical assay, GST-tagged catalytic domain; top concentration tested […]
Excerpt: (§1) Jak Biochemical HTRF Assay Protocol
(§2) Subsequent reagent additions employed an Agilent Bravo.

[2] = target: JAK1 (Homo sapiens (Human), UniProt P23458); test: Jak Biochemical HTRF Assay, JAK1; conditions: HTRF biochemical assay, GST-tagged catalytic domain; top concentration tested […]; read-out: JAK1 IC50
Excerpt: as §1, §2

Sequence of JAK2 (O60674 849-1124): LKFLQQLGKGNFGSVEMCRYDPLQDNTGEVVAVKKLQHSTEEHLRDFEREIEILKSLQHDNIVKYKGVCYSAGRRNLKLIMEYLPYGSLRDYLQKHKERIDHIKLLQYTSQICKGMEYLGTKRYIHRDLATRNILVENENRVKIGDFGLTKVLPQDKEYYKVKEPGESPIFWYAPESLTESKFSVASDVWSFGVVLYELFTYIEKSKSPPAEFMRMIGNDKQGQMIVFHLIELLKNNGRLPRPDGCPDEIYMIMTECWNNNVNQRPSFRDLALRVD
Sequence of JAK1 (P23458 875-1153): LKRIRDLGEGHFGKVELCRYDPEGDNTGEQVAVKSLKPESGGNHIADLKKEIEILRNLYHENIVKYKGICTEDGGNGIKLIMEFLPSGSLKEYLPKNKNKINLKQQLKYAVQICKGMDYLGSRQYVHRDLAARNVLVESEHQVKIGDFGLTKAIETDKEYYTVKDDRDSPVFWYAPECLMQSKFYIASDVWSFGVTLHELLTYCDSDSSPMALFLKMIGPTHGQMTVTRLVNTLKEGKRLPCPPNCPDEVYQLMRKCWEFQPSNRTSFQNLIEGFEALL

How did the IC50 [1] turn out when `N#CCC1(n2cc(C(N)=O)c(Nc3ccccc3)n2)CN(C(=O)Nc2ccc(F)c(Cl)c2)C1` [Example 38-40, 1-{1-[(3-chloro-4-fluorophenyl)carbamoyl]-3-(cyanomethyl)azetidin-3-yl}-3-(phenylamino)-1H-pyrazole-4-carboxamide] was run?
Its IC50 is 279 nM.

What about the IC50 [2] of the same compound?
Its IC50 is 18 nM.

What does the source list for `Cc1ccc(NC(=O)N2CC(CC#N)(n3cc(C(N)=O)c(Nc4ccc(S(C)(=O)=O)cc4)n3)C2)cc1` [Example 38-41, 1-{3-(cyanomethyl)-1-[(4-methylphenyl)carbamoyl]azetidin-3-yl}-3-{[4-(methylsulfonyl)phenyl]amino}-1H-pyrazole-4-carboxamide]?
IC50 [1]: 175 nM; IC50 [2]: 13 nM

For `CS(=O)(=O)c1ccc(Nc2nn(C3(CC#N)CN(C(=O)Nc4cc(F)ccc4F)C3)cc2C(N)=O)cc1` [Example 38-42, 1-{3-(cyanomethyl)-1-[(2,5-difluorophenyl)carbamoyl]azetidin-3-yl}-3-{[4-(methylsulfonyl)phenyl]amino}-1H-pyrazole-4-carboxamide], which IC50 [1] is on record?
The IC50 was 237 nM.

What about the IC50 [2] of the same compound?
The IC50 was 19 nM.

With `CCCCNC(=O)N1CC(CC#N)(n2cc(C(N)=O)c(Nc3ccc(S(C)(=O)=O)cc3)n2)C1` [Example 38-43, 1-[1-(butylcarbamoyl)-3-(cyanomethyl)azetidin-3-yl]-3-{[4-(methylsulfonyl)phenyl]amino}-1H-pyrazole-4-carboxamide] as the compound, how does the IC50 [1] read?
The IC50 was 322 nM.

What about the IC50 [2] of the same compound?
Its IC50 is 20 nM.

What does the source list for `CC(C)NC(=O)N1CCC(CC#N)(n2cc(C(N)=O)c(Nc3ccc(S(=O)(=O)C(F)(F)F)cc3)n2)CC1` [Example 38-44, 4-(4-carbamoyl-3-(4-(trifluoromethylsulfonyl)phenylamino)-1H-pyrazol-1-yl)-4-(cyanomethyl)-N-isopropylpiperidine-1-carboxamide]?
IC50 [1]: 2 nM; IC50 [2]: 0.1 nM

`N#CCC1(n2cc(C(N)=O)c(Nc3ccc(S(=O)(=O)C(F)(F)F)cc3)n2)CCN(C(=O)Nc2ccc(C#N)cc2)CC1` [Example 38-45, 4-(4-carbamoyl-3-(4-(trifluoromethylsulfonyl)phenylamino)-1H-pyrazol-1-yl)-4-(cyanomethyl)-N-(4-cyanophenyl)piperidine-1-carboxamide] was tested. Which IC50 [1] did it give?
Its IC50 is 0.5 nM.

What about the IC50 [2] of the same compound?
Its IC50 is 0.1 nM.

With `CC(C)NC(=O)N1CCC(CC#N)(n2cc(C(N)=O)c(Nc3ccccc3)n2)CC1` [Example 38-46, 4-[4-Carbamoyl-3-(phenylamino)-1H-pyrazol-1-yl]-4-(cyanomethyl)-N-(1-methylethyl)piperidine-1-carboxamide] as the compound, how does the IC50 [1] read?
The IC50 was 59 nM.

What about the IC50 [2] of the same compound?
Its IC50 is 2 nM.

What does the source list for `N#CCC1(n2cc(C(N)=O)c(Nc3ccc(Cl)cc3)n2)CCC(N2CC(F)C2)CC1` (stereo not drawn) [Example 39-1, Cis or trans 3-((4-chlorophenyl)amino)-1-(1-(cyanomethyl)-4-(3-fluoroazetidin-1-yl)cyclohexyl)-1H-pyrazole-4-carboxamide]?
IC50 [1]: 2 nM; IC50 [2]: 0.09 nM

How did the IC50 [1] turn out when `N#CCC1(n2cc(C(N)=O)c(Nc3ccc(F)cc3)n2)CCC(Nc2cccc(F)c2)CC1` (stereo not drawn) [Example 40-3, Cis or trans 1-{1-(cyanomethyl)-4-[(3-fluorophenyl)amino]cyclohexyl}-3-[(4-fluorophenyl)amino]-1H-pyrazole-4-carboxamide] was run?
The IC50 was greater than 1500 nM.

What about the IC50 [2] of the same compound?
The IC50 was 119 nM.

Which IC50 [1] does the source give for `N#CCC1(n2cc(C(N)=O)c(Nc3ccc(F)cc3)n2)CCC(NC2CCOCC2)CC1` (stereo not drawn) [Example 40-5, Cis or trans 1-[1-(cyanomethyl)-4-(tetrahydro-2H-pyran-4-ylamino)cyclohexyl]-3-[(4-fluorophenyl)amino]-1H-pyrazole-4-carboxamide] here?
The IC50 was greater than 1500 nM.

What about the IC50 [2] of the same compound?
The IC50 was 449 nM.

For `N#CCC1(n2cc(C(N)=O)c(Nc3ccnc(F)c3)n2)CCC(Nc2cc(F)ccc2F)CC1` (stereo not drawn) [Example 40-10, Cis or trans 1-{1-(cyanomethyl)-4-[(2,5-difluorophenyl)amino]cyclohexyl}-3-[(2-fluoropyridin-4-yl)amino]-1H-pyrazole-4-carboxamide], which IC50 [1] is on record?
The IC50 was 355 nM.

What about the IC50 [2] of the same compound?
Its IC50 is 14 nM.

How did the IC50 [1] turn out when `N#CCC1(n2cc(C(N)=O)c(Nc3ccnc(F)c3)n2)CCC(Nc2ccccc2Cl)CC1` (stereo not drawn) [Example 40-11, Cis or trans 1-{4-[(2-chlorophenyl)amino]-1-(cyanomethyl)cyclohexyl}-3-[(2-fluoropyridin-4-yl)amino]-1H-pyrazole-4-carboxamide] was run?
Its IC50 is 7 nM.

What about the IC50 [2] of the same compound?
Its IC50 is 0.2 nM.

What does the source list for `N#CCC1(n2cc(C(N)=O)c(Nc3ccc(F)cc3)n2)CCC(Nc2ccccn2)CC1` (stereo not drawn) [Example 40-12, Cis or trans 1-[1-(cyanomethyl)-4-(pyridin-2-ylamino)cyclohexyl]-3-[(4-fluorophenyl)amino]-1H-pyrazole-4-carboxamide]?
IC50 [1]: 73 nM; IC50 [2]: 2 nM

For `CN(c1ccccc1)C1CCC(CC#N)(n2cc(C(N)=O)c(Nc3ccnc(F)c3)n2)CC1` (stereo not drawn) [Example 40-15, Cis or trans 1-{1-(cyanomethyl)-4-[methyl(phenyl)amino]cyclohexyl}-3-[(2-fluoropyridin-4-yl)amino]-1H-pyrazole-4-carboxamide], which IC50 [1] is on record?
The IC50 was 2 nM.

What about the IC50 [2] of the same compound?
The IC50 was 0.08 nM.

Which results are given for `N#CCC1(n2cc(C(N)=O)c(Nc3ccc(F)cc3)n2)CCC(Nc2cccc(F)c2)CC1` (stereo not drawn) [Example 40-16, Cis or trans 1-{1-(cyanomethyl)-4-[(3-fluorophenyl)amino]cyclohexyl}-3-[(4-fluorophenyl)amino]-1H-pyrazole-4-carboxamide]?
IC50 [1]: 18 nM; IC50 [2]: 0.3 nM

`N#CCC1(n2cc(C(N)=O)c(Nc3ccc(F)cc3)n2)CCC(Nc2ccc(F)cc2)CC1` (stereo not drawn) [Example 40-18, Cis or trans 1-{1-(cyanomethyl)-4-[(4-fluorophenyl)amino]cyclohexyl}-3-[(4-fluorophenyl)amino]-1H-pyrazole-4-carboxamide] was tested. Which IC50 [1] did it give?
The IC50 was greater than 1500 nM.

What about the IC50 [2] of the same compound?
Its IC50 is 235 nM.

What does the source list for `N#CCC1(n2cc(C(N)=O)c(Nc3ccc(F)cc3)n2)CCC(Nc2ccc(F)cc2)CC1` (stereo not drawn) [Example 40-19, Cis or trans 1-{1-(cyanomethyl)-4-[(4-fluorophenyl)amino]cyclohexyl}-3-[(4-fluorophenyl)amino]-1H-pyrazole-4-carboxamide]?
IC50 [1]: 10 nM; IC50 [2]: 0.3 nM

For `N#CCC1(n2cc(C(N)=O)c(Nc3ccnc(F)c3)n2)CCC(Nc2ccc(F)c(F)c2)CC1` (stereo not drawn) [Example 40-20, Cis or trans 1-{1-(cyanomethyl)-4-[(3,4-difluorophenyl)amino]cyclohexyl}-3-[(2-fluoropyridin-4-yl)amino]-1H-pyrazole-4-carboxamide], which IC50 [1] is on record?
The IC50 was 43 nM.

And the IC50 [2]?
Its IC50 is 1 nM.

How did the IC50 [1] turn out when `N#CCC1(n2cc(C(N)=O)c(Nc3ccc(F)cc3)n2)CCC(N2CCc3ccccc32)CC1` (stereo not drawn) [Example 40-21, Cis or trans 1-[1-(cyanomethyl)-4-(2,3-dihydro-1H-indol-1-yl)cyclohexyl]-3-[(4-fluorophenyl)amino]-1H-pyrazole-4-carboxamide] was run?
Its IC50 is greater than 1500 nM.

And the IC50 [2]?
Its IC50 is 171 nM.

Which results are given for `N#CCC1(n2cc(C(N)=O)c(Nc3ccnc(F)c3)n2)CCC(NC2CCCCC2)CC1` (stereo not drawn) [Example 40-23, Cis or trans 1-[1-(cyanomethyl)-4-(cyclohexylamino)cyclohexyl]-3-[(2-fluoropyridin-4-yl)amino]-1H-pyrazole-4-carboxamide]?
IC50 [1]: 237 nM; IC50 [2]: 2 nM

Which IC50 [1] does the source give for `N#CCC1(n2cc(C(N)=O)c(Nc3ccnc(F)c3)n2)CCC(Nc2ccccc2Cl)CC1` (stereo not drawn) [Example 40-25, Cis or trans 1-{4-[(2-chlorophenyl)amino]-1-(cyanomethyl)cyclohexyl}-3-[(2-fluoropyridin-4-yl)amino]-1H-pyrazole-4-carboxamide] here?
The IC50 was 940 nM.

What about the IC50 [2] of the same compound?
The IC50 was 63 nM.

`N#CCC1(n2cc(C(N)=O)c(Nc3ccc(S(=O)(=O)C(F)F)cc3)n2)CCC(NC2CCOCC2)CC1` (stereo not drawn) [Example 40-26, Cis or trans 1-[1-(cyanomethyl)-4-(tetrahydro-2H-pyran-4-ylamino)cyclohexyl]-3-({4-[(difluoromethyl)sulfonyl]phenyl}amino)-1H-pyrazole-4-carboxamide] was tested. Which IC50 [1] did it give?
The IC50 was 5 nM.

What about the IC50 [2] of the same compound?
Its IC50 is 0.08 nM.

Which IC50 [1] does the source give for `N#CCC1(n2cc(C(N)=O)c(Nc3ccc(F)cc3)n2)CCC(N2CCC(O)CC2)CC1` (stereo not drawn) [Example 40-27, Cis or trans 1-[1-(cyanomethyl)-4-(4-hydroxypiperidin-1-yl)cyclohexyl]-3-[(4-fluorophenyl)amino]-1H-pyrazole-4-carboxamide] here?
Its IC50 is 273 nM.

And the IC50 [2]?
Its IC50 is 8 nM.

For `N#CCC1(n2cc(C(N)=O)c(Nc3ccnc(F)c3)n2)CCC(Nc2cccc(Cl)c2)CC1` (stereo not drawn) [Example 40-29, Cis or trans 1-{4-[(3-chlorophenyl)amino]-1-(cyanomethyl)cyclohexyl}-3-[(2-fluoropyridin-4-yl)amino]-1H-pyrazole-4-carboxamide], which IC50 [1] is on record?
Its IC50 is 4 nM.

And the IC50 [2]?
Its IC50 is 0.07 nM.

How did the IC50 [1] turn out when `N#CCC1(n2cc(C(N)=O)c(Nc3ccnc(F)c3)n2)CCC(N2CCc3ccccc32)CC1` (stereo not drawn) [Example 40-30, Cis or trans 1-[1-(cyanomethyl)-4-(2,3-dihydro-1H-indol-1-yl)cyclohexyl]-3-[(2-fluoropyridin-4-yl)amino]-1H-pyrazole-4-carboxamide] was run?
The IC50 was greater than 1500 nM.

What about the IC50 [2] of the same compound?
The IC50 was 326 nM.

`N#CCC1(n2cc(C(N)=O)c(Nc3ccc(S(=O)(=O)C(F)F)cc3)n2)CCC(N2CCC(F)(F)CC2)CC1` (stereo not drawn) [Example 40-31, Cis or trans 1-[1-(cyanomethyl)-4-(4,4-difluoropiperidin-1-yl)cyclohexyl]-3-({4-[(difluoromethyl)sulfonyl]phenyl}amino)-1H-pyrazole-4-carboxamide] was tested. Which IC50 [1] did it give?
The IC50 was 2 nM.

What about the IC50 [2] of the same compound?
The IC50 was 0.1 nM.

What does the source list for `N#CCC1(n2cc(C(N)=O)c(Nc3ccnc(F)c3)n2)CCC(Nc2ccc(F)cc2F)CC1` (stereo not drawn) [Example 40-33, Cis or trans 1-{1-(cyanomethyl)-4-[(2,4-difluorophenyl)amino]cyclohexyl}-3-[(2-fluoropyridin-4-yl)amino]-1H-pyrazole-4-carboxamide]?
IC50 [1]: 0.8 nM; IC50 [2]: 0.03 nM

What does the source list for `CN(c1ccccc1)C1CCC(CC#N)(n2cc(C(N)=O)c(Nc3ccnc(F)c3)n2)CC1` (stereo not drawn) [Example 40-34, Cis or trans 1-{1-(cyanomethyl)-4-[methyl(phenyl)amino]cyclohexyl}-3-[(2-fluoropyridin-4-yl)amino]-1H-pyrazole-4-carboxamide]?
IC50 [1]: 105 nM; IC50 [2]: 4 nM
